Assay results as given in US6194465A, “Benzamide therapeutics for the treatment of inflammatory bowel disease” (priority 1999, dated 2001).

Assays:
SK-N-MC cells = assay: TNF-α induced flux of reactive oxygen species (DCF fluorescence); assay type: cell-based; conditions: 100 μM test compound, TNF-α 3.0 ng/mL
Source text: Oxidative stress agents (OSA) are thought to be involved in cell death in IBD and are key initiator in the cascade of events leading to apoptosis. The purpose of this study is to evaluate the effect of Compound A on cytokine-induced OSA flux.
To visualize OSA, the dye dihydrodichlorofluorescein diacetate is used. This non-fluorescent dye is taken up by cells and deacetylated to its non-fluorescent congener dihydrodichlorofluorescein (H2 DCF), which is trapped within cells. Reactive oxygen species ("ROS") react with H2 DCF, converting it to the highly fluorescent DCF. DCF fluorescence can be measured spectrofluorometrically and can also be visualized in intact cells using fluorescent microscopy.
SK-N-MC cells (American Type Culture Collection, Rockville, Md.) were plated at 250,000 cells/well in 24-well Corning plates. Following plating, the cells were maintained in retinoic acid medium (5 μM) for five days and then treated with at test compound at 100 μM for 1 hour prior to TNF-α (3.0 ng/mL) treatment. […] Following incubation, cultures were read in a cytofluorometer at 485-530 nm wavelength to detect increased DCF formation. Relative fluorescence units (RFU) values for the respective treatment conditions were compared. In this assay, higher fluorescence readings indicate ROS production. Thus, reductions in fluorescence indicates reduction in ROS production.

[1] = Plasma concentration time course after oral administration; assay type: in vivo, rats

lower plasma levels in animals dosed 4 hours before TNBS ([1]; > 6 hours after TNBS, vs dosing 1 hour before): approximately 30%
time after which plasma concentrations begin to decline ([1]; following oral administration): > 7 h
Tmax ([1]; rat, plasma, following oral administration, read-out: time of peak plasma concentration): 3 to 4 h
SMILES: CC(=O)Nc1ccc(C(=O)NC(C)(C)C)cc1 [Compound A, N-tert-butyl-4-acetamidobenzamide]
ROS induction by TNF-α (SK-N-MC cells): significantly reduced these effects
